Assay results from patent US9295697B2, “Episomal reprogramming with chemicals” (Cellular Dynamics International, Inc., priority 2009, dated 2016).

Tests used:
[1] = system: human foreskin fibroblasts; assay: Episomal reprogramming of human foreskin fibroblasts with small molecules on MEF feeder cells, alkaline phosphatase positive colonies (Example 2); type: cell-based
Method: FIGS. 5A-5C. Improving episomal reprogramming efficiency with small molecules. FIG. 5A. Effects of PD0325901 (P, 0.5 μM), CHIR99021(C, 3 μM), A-83-01(A, 0.5 μM), hLIF (L, 1000 U/ml) and HA-100 (H, 10 μM) on episomal reprogramming. FIG. 5B Temporal requirement of small molecule treatment for improved episomal reprogramming. Transfected human foreskin fibroblasts were plated to MEF feeder cells. MEF-conditioned human ESC medium supplemented with 100 ng/ml bFGF (CM100) and small molecules was used to support reprogramming. Alkaline phosphatase positive iPSC colonies were counted on day 22-23 post-transfection. The number of iPSC colonies was from ˜0.33×10^6 input cells. Data shown are mean±standard error (s.e.m.) (n=3). FIG. 5C. Differentiation of the newly derived iPSCs (p3) in the presence of small molecules. […] The addition of bFGF in the culture medium had no effect. Black arrow: undifferentiated iPSC colonies; white arrows: differentiated colonies. Scale bars: 100 μm.
FIGS. 6A-6D. Developing feeder-free conditions for episomal reprogramming. FIG. 6A. Effects of MEF feeder cells, Matrigel™ and culture media on episomal reprogramming. Transfected human foreskin fibroblasts (p6) were plated to MEF feeder cell-seeded or Matrigel™-coated 10-cm dishes, and subjected to different reprogramming culture conditions. Alkaline phosphatase positive (AP^+) colonies were counted on day 18-21 post-transfection. The number of AP+ colonies was from ˜0.33×10^6 input cells. Data shown are mean±s.e.m. (n=3). N2B27: DMEM/F12 medium supplemented with N-2 and B-27; N2B27-100: N2B27 medium supplemented with 100 ng/ml bFGF. *marks piPSCs. FIG. 6B. Bright-field images of a piPSC colony from test 2 and a human ESC-like iPSC colony from test 1, 3 and 4. Scale bars: 100 μm. FIG. 6C. Quantitative RT-PCR analysis of OCT4 and NANOG expression in piPSC clone 1 to 4 (p3). Total: both endogenous and transgene expression. Human H1 ESCs (H1ESC, p32) were used as a control. Data shown are mean±s.e.m. (n=3). FIG. 6D. Temporal requirement of small molecule treatment for feeder-free episomal reprogramming using defined culture media. Transfected human foreskin fibroblasts (p7) were plated to Matrigel™-coated 10-cm dishes. N2B27-100 medium supplemented with PCALH was used to support reprogramming for different time windows (stage 2) followed by mTeSR1 for expansion. Alkaline phosphatase positive iPSC colonies were counted on day 22 post-transfection. The number of iPSC colonies was from ˜0.33×10^6 input cells. Data shown are mean±s.e.m. (n=3).
Episomal reprogramming vectors containing expression cassettes for human OCT4, SOX2, NANOG, LIN28, c-MYC, KLF4 and SV40LT transgenes were as previously described (Yu et al., 2009). Specifically, vector pEP4EO2SCK2MEN2L and pEP4EO2SET2K (combination 4) were used for reprogramming optimization. About 7.3 μg of vector pEP4EO2SCK2MEN2L and 3.2 μg of pEP4EO2SET2K were co-transfected into human neonatal foreskin fibroblasts via nucleofection (NHDF-VPD-1001 with U-20 program, Amaxa, Walkersville, Md.). Transfected fibroblasts (˜1.0×10^6 cells per nucleofection) were plated directly to 3×10-cm MEF-seeded dishes or 3×10-cm Matrigel™-coated dishes in fibroblast culture medium. The next day after transfection, fibroblast medium was replaced with MEF-conditioned human ESC medium supplemented with 100 ng/ml zbFGF (CM100), or chemically defined N2B27 medium (N2B27), or N2B27 medium supplemented with 100 ng/ml zbFGF (N2B27-100), or mTeSR1. The N2B27 medium consists of DMEM/F12 culture medium supplemented with N-2 supplement (1×, Invitrogen), B-27 supplement (1×, Invitrogen), 0.1 mM non-essential amino acids, 1 mM GlutaMAX, and 0.1 mM β-mercaptoethanol. Where applied, small molecules PD0325901 (P, 0.5 μM), CHIR99021(C, 3 μM), A-83-01(A, 0.5 μM) (all from Stemgent, San Diego, Calif.), hLIF (L, 1000 U/ml, Millipore, Billerica, Mass.) and HA-100 (H, 10 μM) were added to reprogramming culture. Culture medium was refreshed every two days. […]

[2] = system: human foreskin fibroblasts; assay: Episomal reprogramming of human foreskin fibroblasts with chemical compounds on MEF feeders, alkaline phosphatase positive iPS cell colonies (Example 1); type: cell-based; settings: for effect on episomal reprogramming when added to PD0325901, CHIR99021 and A-83-01: in combination with PD0325901 (0.5 μM), CHIR99021 (3 μM), A-83-01 (0.5 μM)
From the text: FIGS. 1A-1C. Improving episomal reprogramming of human foreskin fibroblasts with small chemical compounds. FIG. 1A. Episomal reprogramming vectors. pEF: the eukaryotic elongation factor 1α promoter; pCMV: the cytomegalovirus immediate-early promoter. Transgenes and other features of vectors are indicated by different colors as shown. FIG. 1B. Effects of different combinations of chemical compounds on episomal reprogramming efficiency. FF medium: human foreskin fibroblast culture medium; CM: human ES cell culture medium previously conditioned with irradiated mouse embryonic fibroblast feeder cells. bFGF was used at 100 ng/ml final concentration. B: BIX01294 (1 μM); P: PD0325901 (0.5 μM); C: CHIR99021 (3 μM); A: A-83-01 (0.5 μM). Total: total # of alkaline phosphatase positive iPS cell colonies; Large: # of large-size good undifferentiated alkaline phosphatase positive iPS cell colonies. FIG. 1C. Images of a good iPS cell colony obtained by episomal reprogramming in the presence of chemical compounds. Left: bright-field; right: alkaline phosphatase staining.
FIGS. 2A-2B. Improving episomal reprogramming of human foreskin fibroblasts with small chemical compounds. FIG. 2A. Effects of bFGF and different combinations of chemical compounds on episomal reprogramming efficiency. FF medium: human foreskin fibroblast culture medium; CM: human ES cell culture medium previously conditioned with irradiated mouse embryonic fibroblast feeder cells. bFGF was used at 100 ng/ml final concentration. H: HA-100 (10 μM); B: BIX01294 (1 μM); P: PD0325901 (0.5 μM); C: CHIR99021 (3 μM); A: A-83-01 (0.5 μM); L: hLIF (10 ng/ml). Total: total # of alkaline phosphatase positive iPS cell colonies; Large: # of large-size good undifferentiated alkaline phosphatase positive iPS cell colonies. FIG. 2B. Timing of chemical compound treatment on episomal reprogramming efficiency. CM supplemented with bFGF (100 ng/ml) and HA-100 (10 μM) was used in reprogramming culture.
FIGS. 4A-4B. Episomal reprogramming in defined medium supplemented with chemical compounds. FIG. 4A. Effect of different culture medium on episomal reprogramming in the presence of PD0325901 (0.5 μM), CHIR99021 (3 μM), A-83-01 (0.5 μM) and hLIF (10 ng/ml). FF medium: human foreskin fibroblast culture medium; CM: human ES cell culture medium previously conditioned with irradiated mouse embryonic fibroblast feeder cells. bFGF was used at 100 ng/ml final concentration. H: HA-100 (10 μM); B: BIX01294 (1 μM); P: PD0325901 (0.5 μM); C: CHIR99021 (3 μM); A: A-83-01 (0.5 μM); L: hLIF (10 ng/ml). Total: total # of alkaline phosphatase positive iPS cell colonies; Large: # of large-size good undifferentiated alkaline phosphatase positive iPS cell colonies. FIG. 4B. Sketch of the three-step reprogramming process for the derivation of normal human ES cell-like iPS cells and piPS cells.
For episomal reprogramming of human somatic cells, human foreskin fibroblasts, episomal vectors (FIG. 1A, 7.3 μg of pEP4EO2SCK2MEN2L and 3.2 μg of pEP4EO2SET2K) (Yu et al., 2009) were cotransfected into 1×10^6 cells via nucleofection (NHDF-VPD-1001 with program U-20, Amaxa, Walkersville, Md.). Transfected foreskin fibroblasts from each nucleofection were directly plated to 3×10-cm MEF-seeded dishes in fibroblast culture medium. For adult skin fibroblasts, 7.3 μg of pEP4EO2SCK2MEN2L and 6.4 μg of pEP4EO2SET2K were cotransfected into 1×10^6 cells via nucleofection (NHDF-VPD-1001 with program U-20, Amaxa). Transfected adult skin fibroblasts from each nucleofection were directly plated to 1×10-cm MEF-seeded dish in fibroblast culture medium due to lower cell survival. […]

[3] = LIF added to PD0325901, CHIR99021 and A-83-01

## Cc1cccc(-c2nn(C(=S)Nc3ccccc3)cc2-c2ccnc3ccccc23)n1 [A-83-01, 3-(6-Methyl-2-pyridinyl)-N-phenyl-4-(4-quinolinyl)-1H-pyrazole-1-carbothioamide]
[1]; CM100, MEF feeder cells
  effect on episomal reprogramming, alone / on its own: minimal effect
  effect on episomal reprogramming, together with the MEK inhibitor PD0325901: minimal effect

## COc1cc2nc(N3CCCN(C)CC3)nc(NC3CCN(Cc4ccccc4)CC3)c2cc1OC [BIX01294]
[2]; BIX01294 1 μM
  effect on reprogramming by episomal vectors, compound on its own: could improve reprogramming
[2]
  effect on episomal reprogramming when added to PD0325901, CHIR99021 and A-83-01: no or only slight benefit

## Cc1cncc2cccc(S(=O)(=O)N3CCCNC[C@@H]3C)c12 [H-1152]
[1]
  replacement of HA-100 in episomal reprogramming: could not be replaced

## O=S(=O)(c1cccc2cnccc12)N1CCNCC1 [HA-100]
[1]; CM100, MEF feeder cells
  effect on episomal reprogramming, alone / on its own: minimal effect
[1]; HA-100 10 μM
  episomal reprogramming efficiency in the presence of PD0325901, CHIR99021, A-83-01 and hLIF: further increased

## Cc1ccc2c(c1)C(=O)C1(O)CCN(c3ccccc3)C1=N2 (centres unmarked) [blebbistatin]
[1]
  replacement of HA-100 in episomal reprogramming: could not be replaced

## hLIF: human leukemia inhibitory factor
[2]; [3]
  first appearance of iPS cells, day post transfection: ~14 days
  first appearance of iPS cells, earlier by: 3 to 4 days
  large iPS cell colonies: more large iPS cell colonies
[2]
  effect on episomal reprogramming when added to PD0325901, CHIR99021 and A-83-01: further facilitated
[1]; hLIF 1000 U/ml
  effect of hLIF on episomal reprogramming efficiency: did not significantly improve
  proliferation of reprogramming intermediates: increased
